From article PMC5218480 (PLoS ONE, 2017)

Test system: MV-4-11 cells
Assay: Gene expression microarray analysis (Affymetrix PrimeView) and GSEA
Format: cell-based, human
Set-up: RFU PODN (11730768_x_at) / Fold change /veh PODN (11730768_x_at) / RFU LINC00158 (11744669_a_at) / Fold change /veh LINC00158 (11744669_a_at) / RFU DUSP10 (11751237_a_at) / Fold change /veh DUSP10 (11751237_a_at) / RFU ID3 (11757404_x_at) / Fold change /veh ID3 (11757404_x_at) / RFU PLEKHG5 (11737974_s_at) / Fold change /veh PLEKHG5 (11737974_s_at) / RFU LRRC4B (11730491_at) / Fold change /veh LRRC4B (11730491_at) / RFU GIMAP4 (11747438_a_at) / Fold change /veh GIMAP4 (11747438_a_at) / RFU KRT8 (11758183_x_at) / Fold change /veh KRT8 (11758183_x_at) / RFU CNN1 (11734310_a_at) / Fold change /veh CNN1 (11734310_a_at) / RFU VPS37D (11726825_at) / Fold change /veh VPS37D (11726825_at) / RFU C10orf10 (11716522_x_at) / Fold change /veh C10orf10 (11716522_x_at) / RFU KIR2DL2 /// KIR2DL4 /// KIR2DL5A /// KIR2DL5B /// KIR2DS1 /// KIR2DS2 /// KIR2DS3 /// KIR2DS4 /// KIR3DL3 /// KIR3DL3 /// KIR3DS1 (11738374_at) / Fold change /veh KIR2DL2 /// KIR2DL4 /// KIR2DL5A /// KIR2DL5B /// KIR2DS1 /// KIR2DS2 /// KIR2DS3 /// KIR2DS4 /// KIR3DL3 /// KIR3DL3 /// KIR3DS1 (11738374_at) / RFU C1QL1 (11718748_at) / Fold change /veh C1QL1 (11718748_at) / RFU TMPRSS4 (11747572_a_at) / Fold change /veh TMPRSS4 (11747572_a_at) / RFU HAMP (11756126_x_at) / Fold change /veh HAMP (11756126_x_at) / RFU RNFT2 (11725882_a_at) / Fold change /veh RNFT2 (11725882_a_at) / RFU NR4A2 (11747474_a_at) / Fold change /veh NR4A2 (11747474_a_at) / RFU ABCC12 (11746883_a_at) / Fold change /veh ABCC12 (11746883_a_at) / RFU TMEM136 (11760407_x_at) / Fold change /veh TMEM136 (11760407_x_at) / RFU CLDN22 /// WWC2 (11732394_at) / Fold change /veh CLDN22 /// WWC2 (11732394_at) / RFU HLA-DPB1 (11760878_x_at) / Fold change /veh HLA-DPB1 (11760878_x_at) / RFU SPINT1 (11716480_a_at) / Fold change /veh SPINT1 (11716480_a_at) / RFU GAP43 (11754022_s_at) / Fold change /veh GAP43 (11754022_s_at) / RFU A4GNT (11735810_at) / Fold change /veh A4GNT (11735810_at) / RFU PRB3 (11715151_x_at) / Fold change /veh PRB3 (11715151_x_at) / RFU TUBB4B (11761932_at) / Fold change /veh TUBB4B (11761932_at) / RFU CAPN14 (11732068_a_at) / Fold change /veh CAPN14 (11732068_a_at) / RFU TMCC2 (11721928_a_at) / Fold change /veh TMCC2 (11721928_a_at) / RFU IRGQ (11745062_a_at) / Fold change /veh IRGQ (11745062_a_at) / RFU FAM174B (11720279_a_at) / Fold change /veh FAM174B (11720279_a_at) / RFU TMPRSS4 (11748680_a_at) / Fold change /veh TMPRSS4 (11748680_a_at) / RFU FAM212B (11763350_a_at) / Fold change /veh FAM212B (11763350_a_at) / RFU PLEKHG5 (11743358_a_at) / Fold change /veh PLEKHG5 (11743358_a_at) / RFU ZSCAN30 (11745921_a_at) / Fold change /veh ZSCAN30 (11745921_a_at) / RFU CMKLR1 (11741424_a_at) / Fold change /veh CMKLR1 (11741424_a_at) / RFU LOC101060620 /// MAPK8IP1 (11723275_at) / Fold change /veh LOC101060620 /// MAPK8IP1 (11723275_at) / RFU SPTSSB (11747773_x_at) / Fold change /veh SPTSSB (11747773_x_at) / RFU PRSS12 (11739890_at) / Fold change /veh PRSS12 (11739890_at) / RFU BIN1 (11741810_x_at) / Fold change /veh BIN1 (11741810_x_at) / RFU WNT11 (11732464_a_at) / Fold change /veh WNT11 (11732464_a_at) / RFU C10orf10 (11716521_a_at) / Fold change /veh C10orf10 (11716521_a_at) / RFU C5orf56 (11738089_at) / Fold change /veh C5orf56 (11738089_at) / RFU CYB561 (11721691_x_at) / Fold change /veh CYB561 (11721691_x_at) / RFU ANKRD19P (11752326_a_at) / Fold change /veh ANKRD19P (11752326_a_at) / RFU OR2T12 /// OR2T33 /// OR2T8 (11738714_s_at) / Fold change /veh OR2T12 /// OR2T33 /// OR2T8 (11738714_s_at) / RFU VCAN (11748164_a_at) / Fold change /veh VCAN (11748164_a_at) / RFU JSRP1 (11732532_at) / Fold change /veh JSRP1 (11732532_at) / RFU KRTAP10-11 (11738290_x_at) / Fold change /veh KRTAP10-11 (11738290_x_at) / RFU MYO3A (11730013_a_at) / Fold change /veh MYO3A (11730013_a_at) / RFU EBF3 (11725865_a_at) / Fold change /veh EBF3 (11725865_a_at) / RFU CAMK2N1 (11719241_x_at) / Fold change /veh CAMK2N1 (11719241_x_at) / RFU C5orf56 (11738088_a_at) / Fold change /veh C5orf56 (11738088_a_at) / RFU OLFML3 (11715873_a_at) / Fold change /veh OLFML3 (11715873_a_at) / RFU LOC100653217 /// NTM (11731650_a_at) / Fold change /veh LOC100653217 /// NTM (11731650_a_at) / RFU MAPK11 (11762145_a_at) / Fold change /veh MAPK11 (11762145_a_at) / RFU FIZ1 (11724087_x_at) / Fold change /veh FIZ1 (11724087_x_at) / RFU OASL (11726364_x_at) / Fold change /veh OASL (11726364_x_at) / RFU SOX15 (11748057_x_at) / Fold change /veh SOX15 (11748057_x_at) / RFU CD79A (11719716_a_at) / Fold change /veh CD79A (11719716_a_at) / RFU HIST1H1D (11736915_at) / Fold change /veh HIST1H1D (11736915_at) / RFU CASKIN2 (11723855_a_at) / Fold change /veh CASKIN2 (11723855_a_at) / RFU LOC730098 (11760151_x_at) / Fold change /veh LOC730098 (11760151_x_at) / RFU OR4N2 (11742367_at) / Fold change /veh OR4N2 (11742367_at) / RFU PRRT2 (11749266_a_at) / Fold change /veh PRRT2 (11749266_a_at) / RFU SNX32 (11753110_a_at) / Fold change /veh SNX32 (11753110_a_at) / RFU CDHR5 (11726645_a_at) / Fold change /veh CDHR5 (11726645_a_at) / RFU RCAN1 (11760418_a_at) / Fold change /veh RCAN1 (11760418_a_at) / RFU FAM167A (11723789_a_at) / Fold change /veh FAM167A (11723789_a_at) / RFU FAM26E (11764081_at) / Fold change /veh FAM26E (11764081_at) / RFU ISYNA1 (11749810_s_at) / Fold change /veh ISYNA1 (11749810_s_at) / RFU ACY1 (11761880_at) / Fold change /veh ACY1 (11761880_at) / RFU 11764098_at / Fold change /veh 11764098_at / RFU SAMD14 (11745864_x_at) / Fold change /veh SAMD14 (11745864_x_at) / RFU NPB (11741838_a_at) / Fold change /veh NPB (11741838_a_at) / RFU TMPRSS6 (11731388_a_at) / Fold change /veh TMPRSS6 (11731388_a_at) / RFU KRTAP10-2 (11738614_at) / Fold change /veh KRTAP10-2 (11738614_at) / RFU ARHGAP8 /// PRR5-ARHGAP8 (11727945_x_at) / Fold change /veh ARHGAP8 /// PRR5-ARHGAP8 (11727945_x_at) / RFU KRTAP5-7 /// NADSYN1 (11734609_at) / Fold change /veh KRTAP5-7 /// NADSYN1 (11734609_at) / RFU RASL12 (11751679_a_at) / Fold change /veh RASL12 (11751679_a_at) / RFU CDKN2B (11736163_a_at) / Fold change /veh CDKN2B (11736163_a_at) / RFU PRF1 (11729649_at) / Fold change /veh PRF1 (11729649_at) / RFU, ZNF638 /// ZNF638-IT1 / Fold change vs veh, ZNF638 /// ZNF638-IT1 / RFU, PANK3 / Fold change vs veh, PANK3 / RFU, SH3YL1 / Fold change vs veh, SH3YL1 / RFU, ZEB2 / Fold change vs veh, ZEB2 / RFU, NRIP1 / Fold change vs veh, NRIP1 / RFU, PTTG1IP / Fold change vs veh, PTTG1IP / RFU, CAPN2 / Fold change vs veh, CAPN2 / RFU, MED14 / Fold change vs veh, MED14 / RFU, SNORA58 / Fold change vs veh, SNORA58 / RFU, C1orf63 / Fold change vs veh, C1orf63 / RFU, LRRFIP1 / Fold change vs veh, LRRFIP1 / RFU, NDUFAF7 / Fold change vs veh, NDUFAF7 / RFU, SLC12A2 / Fold change vs veh, SLC12A2 / RFU, IBTK / Fold change vs veh, IBTK / RFU, ESF1 / Fold change vs veh, ESF1 / Fold change vs veh, TMEM50B / RFU, TAOK1 / Fold change vs veh, TAOK1 / RFU, ACBD3 / Fold change vs veh, ACBD3 / RFU, TMA16 / Fold change vs veh, TMA16 / RFU, RWDD3 / Fold change vs veh, RWDD3 / RFU, BCAT1 / Fold change vs veh, BCAT1 / RFU, EDEM3 / Fold change vs veh, EDEM3 / RFU, TMEM33 / Fold change vs veh, TMEM33 / RFU, WDR75 / Fold change vs veh, WDR75 / RFU, AHCTF1 / Fold change vs veh, AHCTF1 / RFU, TFRC / Fold change vs veh, TFRC / RFU, ZDHHC17 / Fold change vs veh, ZDHHC17 / RFU, NOM1 / Fold change vs veh, NOM1 / RFU, ARL8B / Fold change vs veh, ARL8B / RFU, ZBTB11 / Fold change vs veh, ZBTB11 / RFU, TAMM41 / Fold change vs veh, TAMM41 / RFU, KIAA1704 /// LOC100996395 / Fold change vs veh, KIAA1704 /// LOC100996395 / RFU, ING1 / Fold change vs veh, ING1 / RFU, TRMT61B / Fold change vs veh, TRMT61B / RFU, FUBP3 / Fold change vs veh, FUBP3 / RFU, TP53 / Fold change vs veh, TP53 / RFU, TNKS2 / Fold change vs veh, TNKS2 / RFU, ZFP14 / Fold change vs veh, ZFP14 / RFU, ACTR2 / Fold change vs veh, ACTR2 / RFU, PPP3R1 / Fold change vs veh, PPP3R1 / RFU, PIK3R1 / Fold change vs veh, PIK3R1 / RFU, HNRNPA1 / Fold change vs veh, HNRNPA1 / RFU, RNF170 / Fold change vs veh, RNF170 / RFU, ZNF28 / Fold change vs veh, ZNF28 / RFU, RNGTT / Fold change vs veh, RNGTT / RFU, OGT / Fold change vs veh, OGT / RFU, BRD1 / Fold change vs veh, BRD1 / RFU, MARS / Fold change vs veh, MARS / RFU, ZNF655 / Fold change vs veh, ZNF655 / RFU, FAHD1 / Fold change vs veh, FAHD1 / RFU, BDP1 / Fold change vs veh, BDP1 / RFU, LRRCC1 / Fold change vs veh, LRRCC1 / RFU, ARID1A / Fold change vs veh, ARID1A / RFU, ZNF146 / Fold change vs veh, ZNF146 / RFU, ZNF330 / Fold change vs veh, ZNF330 / RFU, GPN3 / Fold change vs veh, GPN3 / RFU, C9orf123 / Fold change vs veh, C9orf123 / RFU, N4BP2L2 / Fold change vs veh, N4BP2L2 / RFU, ARFIP1 / Fold change vs veh, ARFIP1 / RFU, FAM179B / Fold change vs veh, FAM179B / RFU, BCL10 / Fold change vs veh, BCL10 / RFU, UHRF1BP1L / Fold change vs veh, UHRF1BP1L / RFU, BET1 / Fold change vs veh, BET1 / RFU, CNOT2 / Fold change vs veh, CNOT2 / RFU, ZNF268 / Fold change vs veh, ZNF268 / Fold change vs veh, ZNF507 / RFU, DGCR2 / Fold change vs veh, DGCR2 / RFU, WDSUB1 / Fold change vs veh, WDSUB1 / Fold change vs veh, HSP90B1 /// MIR3652 / RFU, ADSS / Fold change vs veh, ADSS / RFU, GK / Fold change vs veh, GK / RFU, ZNF148 / Fold change vs veh, ZNF148 / RFU, TAF9 / Fold change vs veh, TAF9 / RFU, SLC1A5 / Fold change vs veh, SLC1A5 / RFU, SLMO2 / Fold change vs veh, SLMO2 / RFU, ABCC4 / Fold change vs veh, ABCC4 / RFU, LOC101060439 /// RAP1B / Fold change vs veh, LOC101060439 /// RAP1B / RFU, RFX7 / Fold change vs veh, RFX7 / RFU, GTPBP10 / Fold change vs veh, GTPBP10 / RFU, CNEP1R1 / Fold change vs veh, CNEP1R1 / RFU, BIVM-ERCC5 /// ERCC5 / Fold change vs veh, BIVM-ERCC5 /// ERCC5 / RFU, ILF3 / Fold change vs veh, ILF3 / RFU 11762660_at / Fold change /veh 11762660_at / RFU VCAN (11757783_s_at) / Fold change /veh VCAN (11757783_s_at) / RFU DDX43 (11728927_at) / Fold change /veh DDX43 (11728927_at) / RFU KRT8 (11758188_x_at) / Fold change /veh KRT8 (11758188_x_at) / RFU NKD1 (11759106_at) / Fold change /veh NKD1 (11759106_at) / RFU SRD5A1 (11742802_a_at) / Fold change /veh SRD5A1 (11742802_a_at) / RFU TPSAB1 /// TPSB2 (11721975_s_at) / Fold change /veh TPSAB1 /// TPSB2 (11721975_s_at) / RFU GSTM3 (11746129_a_at) / Fold change /veh GSTM3 (11746129_a_at) / RFU IL23R (11737362_x_at) / Fold change /veh IL23R (11737362_x_at) / RFU TMEM51 (11727254_a_at) / Fold change /veh TMEM51 (11727254_a_at) / RFU PIWIL2 (11732686_x_at) / Fold change /veh PIWIL2 (11732686_x_at) / RFU ORM1 (11744905_x_at) / Fold change /veh ORM1 (11744905_x_at) / RFU CCDC152 (11743942_at) / Fold change /veh CCDC152 (11743942_at) / RFU ECM1 (11717891_a_at) / Fold change /veh ECM1 (11717891_a_at) / RFU IL23R (11748794_a_at) / Fold change /veh IL23R (11748794_a_at) / RFU TNFAIP8L3 (11732012_x_at) / Fold change /veh TNFAIP8L3 (11732012_x_at) / RFU MBOAT4 (11741988_at) / Fold change /veh MBOAT4 (11741988_at) / RFU 11764193_at / Fold change /veh 11764193_at / RFU TMEM53 (11763286_at) / Fold change /veh TMEM53 (11763286_at) / RFU MAGEB2 (11727129_at) / Fold change /veh MAGEB2 (11727129_at) / RFU TMEM200A (11744735_a_at) / Fold change /veh TMEM200A (11744735_a_at) / RFU CCDC152 (11751479_a_at) / Fold change /veh CCDC152 (11751479_a_at) / RFU FAM211A (11726209_a_at) / Fold change /veh FAM211A (11726209_a_at) / RFU RGS16 (11746705_a_at) / Fold change /veh RGS16 (11746705_a_at) / RFU VCAN (11755009_s_at) / Fold change /veh VCAN (11755009_s_at) / RFU RHOB (11743442_s_at) / Fold change /veh RHOB (11743442_s_at) / RFU RGS16 (11720943_a_at) / Fold change /veh RGS16 (11720943_a_at) / RFU RGS16 (11720944_at) / Fold change /veh RGS16 (11720944_at) / RFU, VPS4B / Fold change vs veh, VPS4B / RFU, CREB1 / Fold change vs veh, CREB1 / RFU, DNAJC13 / Fold change vs veh, DNAJC13 / RFU, GNAQ / Fold change vs veh, GNAQ / RFU, CDK5R1 / Fold change vs veh, CDK5R1 / RFU, ZRANB3 / Fold change vs veh, ZRANB3 / RFU, CUL4A / Fold change vs veh, CUL4A / RFU, CCNY / Fold change vs veh, CCNY / RFU, UFL1 / Fold change vs veh, UFL1 / RFU, COG3 / Fold change vs veh, COG3 / RFU, DIAPH2 / Fold change vs veh, DIAPH2 / RFU, SKA2 / Fold change vs veh, SKA2 / RFU, AFF3 / Fold change vs veh, AFF3 / RFU, LMF1 / Fold change vs veh, LMF1 / RFU, IPO11 / Fold change vs veh, IPO11 / RFU, DFFB / Fold change vs veh, DFFB / RFU, FOXP1 / Fold change vs veh, FOXP1 / RFU, CARD8 / Fold change vs veh, CARD8 / RFU, STRN3 / Fold change vs veh, STRN3 / RFU, ADK / Fold change vs veh, ADK / RFU, RASSF2 / Fold change vs veh, RASSF2 / RFU, WIPF1 / Fold change vs veh, WIPF1 / RFU, LARP1B / Fold change vs veh, LARP1B / RFU, RASA1 / Fold change vs veh, RASA1 / RFU, RB1 / Fold change vs veh, RB1 / RFU, PPFIA1 / Fold change vs veh, PPFIA1 / RFU, MAT2A / Fold change vs veh, MAT2A / RFU, CCT5 / Fold change vs veh, CCT5 / RFU, WDR92 / Fold change vs veh, WDR92 / RFU, CUX1 / Fold change vs veh, CUX1 / RFU, TTC7A / Fold change vs veh, TTC7A / RFU, TMEM135 / Fold change vs veh, TMEM135 / RFU, DEPTOR / Fold change vs veh, DEPTOR / RFU, CPM / Fold change vs veh, CPM / RFU, DNAJB6 / Fold change vs veh, DNAJB6 / RFU, CACNA2D3 / Fold change vs veh, CACNA2D3 / RFU, DTX4 / Fold change vs veh, DTX4 / RFU, TFCP2 / Fold change vs veh, TFCP2 / RFU, GMCL1 /// GMCL1P1 / Fold change vs veh, GMCL1 /// GMCL1P1 / RFU, AEBP2 / Fold change vs veh, AEBP2 / RFU, SNHG1 /// SNORD22 /// SNORD25 /// SNORD26 /// SNORD27 /// SNORD28 /// SNORD29 /// SNORD31 / Fold change vs veh, SNHG1 /// SNORD22 /// SNORD25 /// SNORD26 /// SNORD27 /// SNORD28 /// SNORD29 /// SNORD31 / Fold change (Aza/veh), C12orf56 (ProbeSet 11735607_a_at) / Fold change (ACY-1035/veh), C12orf56 (ProbeSet 11735607_a_at) / Fold change (Aza/veh), FGFR1OP (ProbeSet 11751329_s_at) / Fold change (ACY-1035/veh), FGFR1OP (ProbeSet 11751329_s_at) / Fold change (Aza/veh), VPS36 (ProbeSet 11739960_a_at) / Fold change (ACY-1035/veh), VPS36 (ProbeSet 11739960_a_at) / RFU SYPL1 (11715823_x_at) / Fold change /veh SYPL1 (11715823_x_at) / RFU IGFBP7 (11715501_s_at) / Fold change /veh IGFBP7 (11715501_s_at) / RFU REEP3 (11722064_at) / Fold change /veh REEP3 (11722064_at) / RFU IGLL1 (11728026_x_at) / Fold change /veh IGLL1 (11728026_x_at): dose or concentration left out as unconfirmed
Conditions: ProbeSet 11728676_at; LIST B

**Q.** Which “RFU, MED14” value does the source give for `Nc1ncn([C@@H]2O[C@H](CO)[C@@H](O)[C@H]2O)c(=O)n1` [azacitidine] here?
**A.** Its value is 205.61 RFU.
